In publication PMC10920834, “Synthesis, anticancer activity, and molecular docking of half-sandwich iron(II) cyclopentadienyl complexes with maleimide and phosphine or phosphite ligands” (Scientific Reports, 2024):
Read-outs that look alike come from different tables or passages of the source.

What was measured:
[1] = tested on: Genomic DNA isolated from A549 cell line; assay: DNA titration (UV-Vis absorption spectra); format: binding, human; settings: 0.5, 5 and 50 µM, 15 min, room temp.
Protocol: Genomic DNA was isolated from A549 cell line using a commercially available kit (Extractme Genomic DNA Kit, Blirt, Gdansk, Poland) following the manufacturer’s protocol. The concentration and purity of DNA were measured by BioTek Synergy HT Microplate Reader (BioTek Instruments, Winooski, VT, USA). Genomic DNA in the amount of 20 µg was incubated with complex 2b for 15 min at room temp. at concentrations 0.5, 5, and 50 µM in a final volume of 2 ml. Next UV–Vis absorbance spectra (240–300 nm) was measured by UV–Vis JASCO V-630 spectrophotometer (JASCO, Japan).

[2] = tested on: A549 cells; assay: Alkaline comet assay, A549 cells; format: cell-based, human; settings: 2 h, 50 μM
Protocol: (§1) Selected iron(II) complexes were added to the suspension of the cells to give final concentrations of 1, 5, 10, 25 and 50 μM. HL-60 and A549 cells were incubated with the complexes for 2 h at 37 °C. The comet assay was performed under alkaline conditions according to the procedure of Tokarz et al.[45]. […] Next, the cells were lysed for 1 h at 4 °C in a buffer containing 2.5 M NaCl, 0.1 M EDTA, 10 mM Tris, 1% Triton X-100, pH 10. Following the lysis, the slides were placed in an electrophoresis unit. DNA was allowed to unwind for 20 min in the solution containing 300 mM NaOH and 1 mM EDTA, pH > 13. […] After separation, the slides were washed in water, drained, stained with 2 μg/ml DAPI and covered with cover slips. As a prevention from additional DNA damage, the procedure described above was conducted under limited light or in the dark. Each experiment included the positive control—cells incubated with H2O2 at 20 µM for 15 min on ice (data not shown).
(§2) The comets obtained after single cell gel electrophoresis were analysed in the following manner. […] Hundred images of singular comets were randomly selected from each sample and the mean value of DNA in comet tail was taken as an index of DNA damage (expressed in percent).

[3] = tested on: PBM cells; assay: Cell viability resazurin assay, PBM cells; format: cell-based, human; settings: for viability of PBM cells relative to control: ± SD
From the text: Peripheral blood mononuclear (PBM) cells were isolated from a leukocyte-buffy coat collected from the blood of healthy, non-smoking donors at the Blood Bank in Lodz, Poland. The study protocol received approval from the Committee for Research on Human Subjects of the University of Lodz (17/KBBN-UŁ/III/2019). The initial step of isolation process involved mixing buffy coats with PBS in a 1:1 ratio. Subsequently, the mixture was centrifuged using a density gradient of Lymphosep (Cytogen, Zgierz, Poland) at 2200 RPM for 20 min, employing the lowest values for acceleration and deceleration. PBM cells were collected and washed three times by centrifugation with 1 × PBS. Following isolation, the cells were suspended in RPMI 1640 medium.
(§3) Firstly, resazurin salt powder was dissolved in sterile 1 × PBS. Cells were then seeded on the 96-well plates in the count of 1 × 10^4 in the case of HL-60 cells and of 5 × 10^4 for PBM cells and of 5 × 10^3 for A549 cells per well. A549 cells were seeded 24 h prior to treatment with the complexes to allow cell adherence to 96-well plate. Iron(II) complexes were added to wells to obtain final concentrations of 0.5, 1, 2.5, 5, 10, 25, 50, 100 and 250 μM. Subsequently, plates were incubated at 37 °C in 5% CO2 for 2 h and 24 h. After that 10 μl of resazurin salt was added to each well and plates again were incubated in 37 °C in 5% CO2 for 2 h. Finally, fluorescence was measured with microplate reader Synergy HT (Bio-Tek Instruments, USA) using an excitation wavelength of 530/25 and an emission wavelength of 590/35 nm. The effects of iron(II) complexes were calculated as the percentage of control fluorescence. IC50 (half maximal inhibitory concentration) values were calculated using a website algorithm (https://www.aatbio.com/tools/ic50-calculator). All assays were performed in octuplicate.

[4] = tested on: HL-60 cells; assay: Cell viability resazurin assay, HL-60 cells; format: cell-based, human; settings: for viability of HL-60 cells relative to control: ± SD
Protocol: (§4) The A549 (human non-small cell lung cancer) cell line was obtained from the American Type Culture Collection (ATCC) and cultured in Dulbecco's Modified Eagle Medium (DMEM) with 10% fetal bovine serum (FBS), 2 mM L-Glutamine, 25 mM HEPES and penicillin/streptomycin solution (100 U/ml and 100 µg/ml, respectively). The HL-60 (human promyelocytic leukemia) cell line was also obtained from the American Type Culture Collection (ATCC) and cultured in Iscove’s Modified Dulbecco's Medium (IMDM) with 15% fetal bovine serum (FBS), 2 mM L-Glutamine, 25 mM HEPES and penicillin/streptomycin solution (100 U/ml and 100 µg/ml, respectively). Both cell lines were cultured in flasks at 37 °C in 5% CO2 and sub-cultured every 2–3 days to maintain exponential growth.
as §3

[5] = tested on: A549 cells; assay: Cell viability resazurin assay, A549 cells; format: cell-based, human; settings: for viability of A549 cells relative to control: ± SD
Protocol: as §4, §3

[6] = tested on: HL-60 cells; assay: Alkaline comet assay, HL-60 cells; format: cell-based, human
Protocol: as §1, §2

[7] = tested on: doxorubicin-resistant (Colo320) cells; parameters: method as in PMID 37187089; settings: cited from earlier work
[8] = tested on: doxorubicin-sensitive cells (Colo205); parameters: method as in PMID 37187089; settings: cited from earlier work
[9] = tested on: HL-60 cells; parameters: method as in PMID 26486993; settings: studied previously; read-out: IC50 HL-60 cells (ruthenium analogues); cited from earlier work
[10] = tested on: PBM cells; settings: cited from earlier work; for IC50: studied previously, read-out: IC50 PBM cells (ruthenium analogues)

SMILES: O=C1C=CC(=O)[N-]1.[C-]#[O+].[Fe+2].c1cc[cH-]c1.c1coc(P(c2ccco2)c2ccco2)c1 [2b, CpFe(CO)(P(Fu)3)(η^1-N-maleimidato)]
- interaction with DNA (UV-Vis spectroscopic titration) [1]: does not interact in an intercalative manner with DNA
- percentage of DNA damage in tail (alkaline comet assay) [2]: about 2%
- viability of PBM cells relative to control ([3]; 2 h incubation, 0.5 µM): 98.07 ± 0.32%
- viability of PBM cells relative to control ([3]; 2 h incubation, 1 µM): 97.62 ± 0.66%
- viability of PBM cells relative to control ([3]; 2 h incubation, 2.5 µM): 96.06 ± 2.38%
- viability of PBM cells relative to control ([3]; 2 h incubation, 5 µM): 97 ± 1.29%
- viability of PBM cells relative to control ([3]; 2 h incubation, 10 µM): 96.53 ± 1.24%
- viability of PBM cells relative to control ([3]; 2 h incubation, 25 µM): 93.16 ± 4.6%
- viability of PBM cells relative to control ([3]; 2 h incubation, 50 µM): 79.21 ± 1.4%
- viability of PBM cells relative to control ([3]; 2 h incubation, 100 µM): 78.49 ± 1.24%
- viability of PBM cells relative to control ([3]; 2 h incubation, 250 µM): 75.23 ± 0.62%
- IC50 ([3]; 24 h incubation): > 250 µM
- viability of PBM cells relative to control ([3]; 24 h incubation, 0.5 µM): 105.37 ± 7.62%
- viability of PBM cells relative to control ([3]; 24 h incubation, 1 µM): 101.81 ± 0.86%
- viability of PBM cells relative to control ([3]; 24 h incubation, 2.5 µM): 97.1 ± 1.83%
- viability of PBM cells relative to control ([3]; 24 h incubation, 5 µM): 94.2 ± 4.56%
- viability of PBM cells relative to control ([3]; 24 h incubation, 10 µM): 94.94 ± 2.09%
- viability of PBM cells relative to control ([3]; 24 h incubation, 25 µM): 88.93 ± 2.18%
- viability of PBM cells relative to control ([3]; 24 h incubation, 50 µM): 85.34 ± 2.58%
- viability of PBM cells relative to control ([3]; 24 h incubation, 100 µM): 83.38 ± 3.4%
- viability of PBM cells relative to control ([3]; 24 h incubation, 250 µM): 77.59 ± 2.06%
- viability of HL-60 cells relative to control ([4]; 2 h incubation, 0.5 µM): 106.51 ± 2.33%
- viability of HL-60 cells relative to control ([4]; 2 h incubation, 1 µM): 106.74 ± 1.35%
- viability of HL-60 cells relative to control ([4]; 2 h incubation, 2.5 µM): 103.04 ± 1.98%
- viability of HL-60 cells relative to control ([4]; 2 h incubation, 5 µM): 104.72 ± 2.62%
- viability of HL-60 cells relative to control ([4]; 2 h incubation, 10 µM): 104.03 ± 2.08%
- viability of HL-60 cells relative to control ([4]; 2 h incubation, 25 µM): 95.86 ± 2.66%
- viability of HL-60 cells relative to control ([4]; 2 h incubation, 50 µM): 90.45 ± 0.98%
- viability of HL-60 cells relative to control ([4]; 2 h incubation, 100 µM): 76.15 ± 3.1%
- viability of HL-60 cells relative to control ([4]; 2 h incubation, 250 µM): 21.23 ± 1.56%
- IC50 ([4]; 24 h incubation): 10 µM
- viability of HL-60 cells relative to control ([4]; 24 h incubation, 0.5 µM): 107.57 ± 3.87%
- viability of HL-60 cells relative to control ([4]; 24 h incubation, 1 µM): 105.5 ± 3.13%
- viability of HL-60 cells relative to control ([4]; 24 h incubation, 2.5 µM): 97.63 ± 0.5%
- viability of HL-60 cells relative to control ([4]; 24 h incubation, 5 µM): 79.34 ± 1.21%
- viability of HL-60 cells relative to control ([4]; 24 h incubation, 10 µM): 51.6 ± 1.43%
- viability of HL-60 cells relative to control ([4]; 24 h incubation, 25 µM): 38.21 ± 0.22%
- viability of HL-60 cells relative to control ([4]; 24 h incubation, 50 µM): 35.8 ± 2.09%
- viability of HL-60 cells relative to control ([4]; 24 h incubation, 100 µM): 25.41 ± 1.92%
- viability of HL-60 cells relative to control ([4]; 24 h incubation, 250 µM): 17.52 ± 1.12%
- viability of A549 cells relative to control ([5]; 2 h incubation, 0.5 µM): 84.30 ± 11.24%
- viability of A549 cells relative to control ([5]; 2 h incubation, 1 µM): 80.74 ± 14%
- viability of A549 cells relative to control ([5]; 2 h incubation, 2.5 µM): 82.33 ± 9.73%
- viability of A549 cells relative to control ([5]; 2 h incubation, 5 µM): 83.32 ± 11.51%
- viability of A549 cells relative to control ([5]; 2 h incubation, 10 µM): 101.28 ± 15.65%
- viability of A549 cells relative to control ([5]; 2 h incubation, 25 µM): 114.98 ± 11.35%
- viability of A549 cells relative to control ([5]; 2 h incubation, 50 µM): 123.09 ± 7.89%
- viability of A549 cells relative to control ([5]; 2 h incubation, 100 µM): 84.95 ± 8.31%
- viability of A549 cells relative to control ([5]; 2 h incubation, 250 µM): 40.75 ± 4.24%
- IC50 ([5]; 24 h incubation): 73.5 µM
- viability of A549 cells relative to control ([5]; 24 h incubation, 0.5 µM): 81.57 ± 14.09%
- viability of A549 cells relative to control ([5]; 24 h incubation, 1 µM): 74.40 ± 19.47%
- viability of A549 cells relative to control ([5]; 24 h incubation, 2.5 µM): 73.54 ± 23.46%
- viability of A549 cells relative to control ([5]; 24 h incubation, 5 µM): 61.87 ± 14.65%
- viability of A549 cells relative to control ([5]; 24 h incubation, 10 µM): 87.91 ± 9.79%
- viability of A549 cells relative to control ([5]; 24 h incubation, 25 µM): 110.30 ± 11.49%
- viability of A549 cells relative to control ([5]; 24 h incubation, 50 µM): 91.31 ± 16.37%
- viability of A549 cells relative to control ([5]; 24 h incubation, 100 µM): 13.33 ± 3.51%
- viability of A549 cells relative to control ([5]; 24 h incubation, 250 µM): 1.39 ± 0.12%
- DNA damage in HL-60 cells (alkaline comet assay), in words ([6]; 2 h incubation, 1-50 μM tested): induced DNA damage
- DNA in tail (alkaline comet assay) ([6]; HL-60 cells, 2 h, 50 μM): 6%

SMILES: O=S(=O)([O-])C(F)(F)F.[C-]#[O+].[Fe+2].c1cc[cH-]c1.c1ccc(Cn2ccnc2)cc1.c1ccc(P(c2ccccc2)c2ccccc2)cc1 [[CpFe(CO)(PPh3) (1-benzylimidazole)](CF3SO3)]
- IC50 [7]: 2.21 ± 0.26 µM
- IC50 [8]: 1.26 ± 0.11 µM

SMILES: O=C1C=CC(=O)[N-]1.[C-]#[O+].[Ru+2].c1cc[cH-]c1.c1ccc(P(c2ccccc2)c2ccccc2)cc1 [ruthenium complex 2b, CpRu(CO)(PPh3) (η^1-N-maleimidato)]
- IC50 [9]: 35.6 µM
- cytotoxicity toward PBM cells of ruthenium analogues, in words ([10]; listed as 2b-Ru): cytotoxic
- IC50 [10]: 8.48 µM

SMILES: CCOP(OCC)OCC.O=C1C=CC(=O)[N-]1.[C-]#[O+].[Ru+2].c1cc[cH-]c1 [ruthenium(II) complex 3a, CpRu(CO)(P(OEt)3)(η^1-N-maleimidato)]
- IC50 [9]: 12.2 µM
- IC50 [10]: > 250 µM
